Measured values as given in ChEMBL document CHEMBL3046007, “Isonicotinic acid hydrazide derivatives: synthesis, antimicrobial activity, and QSAR studies” (Med Chem Res, 2012).
Converted amounts (≈) assume the structure as drawn.

How the values were obtained:
Aspergillus niger = assay: Antimicrobial activity against Aspergillus niger after 7 days by serial dilution method; type: functional
Candida albicans = assay: Antimicrobial activity against Candida albicans after 48 hr by serial dilution method; type: functional
Escherichia coli = assay: Antimicrobial activity against Escherichia coli after 24 hr by serial dilution method; type: functional
Staphylococcus aureus = assay: Antimicrobial activity against Staphylococcus aureus after 24 hr by serial dilution method; type: functional
Bacillus subtilis = assay: Antimicrobial activity against Bacillus subtilis after 24 hr by serial dilution method; type: functional
[1] = Cytotoxicity against Chlorocebus aethiops (African green monkey) Vero cells assessed as alteration in cell morphology; type: cell-based; conditions: chlorocebus sabaeus
Punta Toro virus = assay: Antiviral activity against Punta Toro virus infected Vero cells assessed as inhibition of virus-induced cytopathicity; type: functional, organism-based
Coxsackievirus B4 [2] = assay: Antiviral activity against Human coxsackievirus B4 infected Vero cells assessed as inhibition of virus-induced cytopathicity; type: functional, organism-based; conditions: Enterovirus B
Sindbis virus = assay: Antiviral activity against Sindbis virus infected Vero cells assessed as inhibition of virus-induced cytopathicity; type: functional, organism-based
[3] = tested on: Mammalian orthoreovirus 1; assay: Antiviral activity against Mammalian orthoreovirus 1 infected Vero cells assessed as inhibition of virus-induced cytopathicity; type: functional, organism-based; conditions: Mammalian orthoreovirus 1, Vero
Human respirovirus 3 = assay: Antiviral activity against Human parainfluenza virus 3 infected Vero cells assessed as inhibition of virus-induced cytopathicity; type: functional, organism-based; conditions: Human respirovirus 3, Vero
[4] = tested on: Respiratory syncytial virus; assay: Antiviral activity against Respiratory syncytial virus infected human HeLa cells assessed as inhibition of virus-induced cytopathicity; type: functional, organism-based
Coxsackievirus B4 [5] = assay: Antiviral activity against Human coxsackievirus B4 infected human HeLa cells assessed as inhibition of virus-induced cytopathicity; type: functional, organism-based; conditions: Enterovirus B
[6] = tested on: Vesicular stomatitis virus; assay: Antiviral activity against Vesicular stomatitis virus infected human HeLa cells assessed as inhibition of virus-induced cytopathicity; type: functional, organism-based
[7] = Cytotoxicity against Homo sapiens (human) HeLa cells; type: cell-based
[8] = Cytotoxicity against Homo sapiens (human) HEL cells; type: cell-based
Human alphaherpesvirus 1 [9] = assay: Antiviral activity against TK(-) aciclovir-resistant Human herpesvirus 1 strain KOS infected in human HEL cells assessed as inhibition of virus-induced cytopathicity; type: functional, organism-based; conditions: Human alphaherpesvirus 1, KOS
Vaccinia virus = assay: Antiviral activity against Vaccinia virus infected human HEL cells assessed as inhibition of virus-induced cytopathicity; type: functional, organism-based; conditions: Orthopoxvirus vaccinia
Human alphaherpesvirus 2 = assay: Antiviral activity against Human herpesvirus 2 strain G infected human HEL cells assessed as inhibition of virus-induced cytopathicity; type: functional, organism-based; conditions: Human alphaherpesvirus 2, strain G
Human alphaherpesvirus 1 [10] = assay: Antiviral activity against Human herpesvirus 1 strain KOS infected in human HEL cells assessed as inhibition of virus-induced cytopathicity; type: functional, organism-based; conditions: Human alphaherpesvirus 1, KOS
[11] = Cytotoxicity against Homo sapiens (human) MT4 cells; type: cell-based
[12] = tested on: Human immunodeficiency virus 2; assay: Antiviral activity against Human immunodeficiency virus type 2 (ISOLATE ROD) infected human MT4 cells assessed as inhibition of virus-induced cytopathicity; type: functional, organism-based; conditions: Human immunodeficiency virus 2, ISOLATE ROD
[13] = tested on: Human immunodeficiency virus 1; assay: Antiviral activity against Human immunodeficiency virus 1 IIIB infected human MT4 cells assessed as inhibition of virus-induced cytopathicity; type: functional, organism-based

For COc1cc(/C=N/NC(=O)c2ccncc2)cc(OC)c1OC, the “-logMIC” value (Aspergillus niger) was 2.4, the “-logMIC” value (Candida albicans) was 2.4 and the “-logMIC” value (Escherichia coli) was 2.1. The “-logMIC” value (Staphylococcus aureus) was 2.1, the “-logMIC” value (Bacillus subtilis) was 2.4 and the MCC [1] was > 100 µg/mL. The EC50 (Punta Toro virus) was > 100 µg/mL, the EC50 (Coxsackievirus B4 [2]) was > 100 µg/mL and the EC50 (Sindbis virus) was > 100 µg/mL. The EC50 [3] was > 100 µg/mL, the EC50 (Human respirovirus 3) was > 100 µg/mL and the EC50 [4] was > 100 µg/mL. The EC50 (Coxsackievirus B4 [5]) was > 100 µg/mL, the EC50 [6] was > 100 µg/mL and the MCC [7] was ≥ 100 µg/mL. The MCC [8] was > 100 µg/mL, the EC50 (Human alphaherpesvirus 1 [9]) was > 100 µg/mL and the EC50 (Vaccinia virus) was > 100 µg/mL. The EC50 (Human alphaherpesvirus 2) was > 100 µg/mL, the EC50 (Human alphaherpesvirus 1 [10]) was > 100 µg/mL and the CC50 [11] was 110 µg/mL (≈ 349 µM). The EC50 [12] was > 110 µg/mL and the EC50 [13] was > 110 µg/mL.

In the case of COc1cc(/C=N/NC(=O)c2ccncc2)ccc1O [FTIVAZIDE], the “-logMIC” value (Aspergillus niger) is reported as 2.34, the “-logMIC” value (Candida albicans) is reported as 2.34 and the “-logMIC” value (Escherichia coli) is reported as 2.34. The “-logMIC” value (Staphylococcus aureus) was 2.04, the “-logMIC” value (Bacillus subtilis) was 2.04 and the MCC [1] was > 100 µg/mL. For the same compound, the EC50 (Punta Toro virus) was > 100 µg/mL, the EC50 (Coxsackievirus B4 [2]) was > 100 µg/mL and the EC50 (Sindbis virus) was > 100 µg/mL. For the same compound, the EC50 [3] was > 100 µg/mL, the EC50 (Human respirovirus 3) was > 100 µg/mL and the EC50 [4] was > 20 µg/mL. For the same compound, the EC50 (Coxsackievirus B4 [5]) was > 20 µg/mL, the EC50 [6] was > 20 µg/mL and the MCC [7] was 100 µg/mL. For the same compound, the MCC [8] was > 100 µg/mL, the EC50 (Human alphaherpesvirus 1 [9]) was > 100 µg/mL and the EC50 (Vaccinia virus) was > 100 µg/mL. For the same compound, the EC50 (Human alphaherpesvirus 2) was > 100 µg/mL, the EC50 (Human alphaherpesvirus 1 [10]) was > 100 µg/mL and the CC50 [11] was ≥ 89 µg/mL. The EC50 [12] was > 89 µg/mL and the EC50 [13] was > 89 µg/mL.

With O=C(N/N=C/c1c[nH]c2ccccc12)c1ccncc1 the “-logMIC” value (Aspergillus niger) was 2.32, the “-logMIC” value (Candida albicans) was 2.63 and the “-logMIC” value (Escherichia coli) was 2.02. For the same compound, the “-logMIC” value (Staphylococcus aureus) was 2.02, the “-logMIC” value (Bacillus subtilis) was 2.02 and the MCC [1] was > 100 µg/mL. The EC50 (Punta Toro virus) was > 100 µg/mL, the EC50 (Coxsackievirus B4 [2]) was 45 µg/mL (≈ 170 µM) and the EC50 (Sindbis virus) was > 100 µg/mL. For the same compound, the EC50 [3] was 2.4 µg/mL (≈ 9.08 µM), the EC50 (Human respirovirus 3) was > 100 µg/mL and the EC50 [4] was > 100 µg/mL. The EC50 (Coxsackievirus B4 [5]) was > 100 µg/mL, the EC50 [6] was > 100 µg/mL and the MCC [7] was ≥ 100 µg/mL. The MCC [8] was > 100 µg/mL, the EC50 (Human alphaherpesvirus 1 [9]) was > 100 µg/mL and the EC50 (Vaccinia virus) was > 100 µg/mL. For the same compound, the EC50 (Human alphaherpesvirus 2) was > 100 µg/mL, the EC50 (Human alphaherpesvirus 1 [10]) was > 100 µg/mL and the CC50 [11] was 95 µg/mL (≈ 359 µM). The EC50 [12] was > 95 µg/mL and the EC50 [13] was > 95 µg/mL.

For O=C(N/N=C/c1c(O)ccc2ccccc12)c1ccncc1, the “-logMIC” value (Aspergillus niger) was 2.37, the “-logMIC” value (Candida albicans) was 2.37 and the “-logMIC” value (Escherichia coli) was 2.07. The “-logMIC” value (Staphylococcus aureus) was 2.07, the “-logMIC” value (Bacillus subtilis) was 2.07 and the MCC [1] was ≥ 0.8 µg/mL. For the same compound, the EC50 (Punta Toro virus) was > 0.8 µg/mL, the EC50 (Coxsackievirus B4 [2]) was > 0.8 µg/mL and the EC50 (Sindbis virus) was > 0.8 µg/mL. For the same compound, the EC50 [3] was > 0.8 µg/mL, the EC50 (Human respirovirus 3) was > 0.8 µg/mL and the EC50 [4] was > 0.04 µg/mL. For the same compound, the EC50 (Coxsackievirus B4 [5]) was > 0.04 µg/mL, the EC50 [6] was > 0.04 µg/mL and the MCC [7] was 0.2 µg/mL. For the same compound, the MCC [8] was ≥ 20 µg/mL, the EC50 (Human alphaherpesvirus 1 [9]) was 0.4 µg/mL (≈ 1.37 µM) and the EC50 (Vaccinia virus) was 0.14 µg/mL (≈ 0.481 µM). For the same compound, the EC50 (Human alphaherpesvirus 2) was 0.4 µg/mL (≈ 1.37 µM), the EC50 (Human alphaherpesvirus 1 [10]) was 0.06 µg/mL (≈ 0.206 µM) and the CC50 [11] was 0.1 µg/mL (≈ 0.343 µM). The EC50 [12] was > 0.1 µg/mL and the EC50 [13] was > 0.1 µg/mL.

In the case of COc1cc(/C=N/N(C(=O)c2ccccc2)C(=O)c2ccncc2)ccc1O, the “-logMIC” value (Aspergillus niger) is reported as 2.48, the “-logMIC” value (Candida albicans) is reported as 3.08 and the “-logMIC” value (Escherichia coli) is reported as 2.48. The “-logMIC” value (Staphylococcus aureus) was 2.48, the “-logMIC” value (Bacillus subtilis) was 2.18 and the MCC [1] was ≥ 100 µg/mL. For the same compound, the EC50 (Punta Toro virus) was > 100 µg/mL, the EC50 (Coxsackievirus B4 [2]) was > 100 µg/mL and the EC50 (Sindbis virus) was > 100 µg/mL. For the same compound, the EC50 [3] was > 100 µg/mL, the EC50 (Human respirovirus 3) was > 100 µg/mL and the EC50 [4] was > 20 µg/mL. For the same compound, the EC50 (Coxsackievirus B4 [5]) was > 20 µg/mL, the EC50 [6] was > 20 µg/mL and the MCC [7] was 100 µg/mL. For the same compound, the MCC [8] was > 100 µg/mL, the EC50 (Human alphaherpesvirus 1 [9]) was > 100 µg/mL and the EC50 (Vaccinia virus) was > 100 µg/mL. The EC50 (Human alphaherpesvirus 2) was > 100 µg/mL, the EC50 (Human alphaherpesvirus 1 [10]) was > 100 µg/mL and the CC50 [11] was 105 µg/mL (≈ 280 µM). The EC50 [12] was > 105 µg/mL and the EC50 [13] was > 105 µg/mL.

With COc1cccc(OC)c1/C=N/NC(=O)c1ccncc1 the “-logMIC” value (Aspergillus niger) was 2.36, the “-logMIC” value (Candida albicans) was 2.36 and the “-logMIC” value (Escherichia coli) was 2.06. The “-logMIC” value (Staphylococcus aureus) was 2.06, the “-logMIC” value (Bacillus subtilis) was 2.06 and the MCC [1] was 100 µg/mL. The EC50 (Punta Toro virus) was > 20 µg/mL, the EC50 (Coxsackievirus B4 [2]) was > 20 µg/mL and the EC50 (Sindbis virus) was > 20 µg/mL. For the same compound, the EC50 [3] was > 20 µg/mL, the EC50 (Human respirovirus 3) was > 20 µg/mL and the EC50 [4] was > 20 µg/mL. For the same compound, the EC50 (Coxsackievirus B4 [5]) was > 20 µg/mL, the EC50 [6] was > 20 µg/mL and the MCC [7] was 100 µg/mL. For the same compound, the MCC [8] was > 100 µg/mL, the EC50 (Human alphaherpesvirus 1 [9]) was > 100 µg/mL and the EC50 (Vaccinia virus) was > 100 µg/mL. For the same compound, the EC50 (Human alphaherpesvirus 2) was > 100 µg/mL, the EC50 (Human alphaherpesvirus 1 [10]) was > 100 µg/mL and the CC50 [11] was 9 µg/mL (≈ 31.5 µM). For the same compound, the EC50 [12] was > 9 µg/mL and the EC50 [13] was > 9 µg/mL.
